Data reported in the NIST ThermoML archive (doi:10.1021/je060228n).
Numbers after ± are expanded uncertainties.

Key:
[1] = xn = mol fraction of the nth substance listed; conditions: 101 kPa, Liquid
[2] = refractive index (Na D-line) (dimensionless); xn = mol fraction of the nth substance listed; conditions: 298.15 K, 101 kPa, Liquid
[3] = refractive index (Na D-line) (dimensionless); conditions: 298.15 K; 101.33 kPa; Liquid
[4] = 101 kPa, Liquid

CCOS(=O)(=O)[O-].CCn1cc[n+](C)c1 [1-ethyl-3-methylimidazolium ethyl sulfate] + O
[1]
Conditions | mass density, 298.15 K [kg/m3] | mass density, 313.15 K [kg/m3] | mass density, 328.15 K [kg/m3] | speed of sound, 298.15 K [m/s] | speed of sound, 313.15 K [m/s] | speed of sound, 328.15 K [m/s] | viscosity, 298.15 K [mPa·s] | viscosity, 313.15 K [mPa·s] | viscosity, 328.15 K [mPa·s]
x2 = 0 | 1237.63 ± 1.3 | 1227.51 ± 1.3 | 1217.47 ± 1.2 | 1679.1 ± 13 | 1641.6 ± 13 | 1604.5 ± 12 | 97.58 ± 4.5 | 50.01 ± 0.52 | 29.18 ± 0.58
x2 = 0.0715 | 1236.14 ± 1.2 | 1225.97 ± 1.2 | 1215.87 ± 1.2 | 1687 ± 13 | 1640.1 ± 13 | 1617.1 ± 12 | 82.01 ± 2.9 | 43.36 ± 0.82 | 25.8 ± 0.5
x2 = 0.2089 | 1232.72 ± 1.2 | 1222.53 ± 1.1 | 1212.4 ± 1.1 | 1696.7 ± 13 | 1660.8 ± 13 | 1622.1 ± 13 | 57.84 ± 0.73 | 32.09 ± 0.6 | 19.82 ± 0.38
x2 = 0.3227 | 1229 ± 1.1 | 1218.87 ± 1.1 | 1208.82 ± 1.1 | 1707.2 ± 13 | 1671 ± 13 | 1631.7 ± 13 | 42.89 ± 0.76 | 24.76 ± 0.46 | 15.8 ± 0.3
x2 = 0.5041 | 1220 ± 1 | 1209.82 ± 0.99 | 1199.54 ± 0.96 | 1729 ± 13 | 1692.6 ± 13 | 1652.9 ± 13 | 24.74 ± 0.44 | 15.11 ± 0.29 | 10.02 ± 0.2
x2 = 0.5975 | 1212.9 ± 1 | 1202.43 ± 0.94 | 1192.02 ± 0.91 | 1741.6 ± 13 | 1703.9 ± 13 | 1665.9 ± 13 | 17.52 ± 0.32 | 10.98 ± 0.21 | 7.45 ± 0.15
x2 = 0.7441 | 1192.2 ± 0.9 | 1181.55 ± 0.85 | 1170.8 ± 0.8 | 1773 ± 14 | 1734.5 ± 13 | 1695.3 ± 13 | 10.58 ± 0.2 | 6.715 ± 0.14 | 4.622 ± 0.11
x2 = 0.854 | 1159.2 ± 0.8 | 1146.19 ± 0.72 | 1135.3 ± 0.7 | 1792.6 ± 14 | 1749.2 ± 13 | 1704.3 ± 13 | 5.848 ± 0.13 | 3.818 ± 0.087 | 2.596 ± 0.06
x2 = 0.9506 | 1084.4 ± 0.5 | 1076.1 ± 0.49 | 1066.9 ± 0.5 | 1709.2 ± 13 | 1693.1 ± 13 | 1668.1 ± 13 | 2.316 ± 0.054 | 1.608 ± 0.038 | 1.189 ± 0.029

[2]
Conditions | refractive index
x2 = 0 | 1.4794 ± 0.0014
x2 = 0.0715 | 1.47827 ± 0.0014
x2 = 0.2089 | 1.476 ± 0.0014
x2 = 0.3227 | 1.47344 ± 0.0014
x2 = 0.5041 | 1.46726 ± 0.0014
x2 = 0.5975 | 1.46243 ± 0.0014
x2 = 0.7441 | 1.44916 ± 0.0014
x2 = 0.854 | 1.42825 ± 0.0014
x2 = 0.9506 | 1.38383 ± 0.0014

CCO [ethanol]
Conditions | refractive index
[3] | 1.36023 ± 0.0014

[4]
Conditions | mass density [kg/m3] | speed of sound [m/s] | viscosity [mPa·s]
298.15 K | 785.46 ± 0.92 | 1146.3 ± 9.6 | 1.082 ± 0.027
313.15 K | 772 ± 1 | 1092.8 ± 9.3 | 0.827 ± 0.023
328.15 K | 758.6 ± 1 | 1043.2 ± 9 | 0.641 ± 0.02

CCO [ethanol] + CCOS(=O)(=O)[O-].CCn1cc[n+](C)c1
[1], x1 = 1
Conditions | mass density [kg/m3] | speed of sound [m/s] | viscosity [mPa·s]
298.15 K | 785.46 ± 0.92 | 1146.3 ± 9.6 | 1.082 ± 0.027
313.15 K | 772 ± 1 | 1092.8 ± 9.3 | 0.827 ± 0.023
328.15 K | 758.6 ± 1 | 1043.2 ± 9 | 0.641 ± 0.02

Conditions | refractive index
[2], x1 = 1 | 1.36023 ± 0.0014

O [water] + CCOS(=O)(=O)[O-].CCn1cc[n+](C)c1
[1], x1 = 1
Conditions | mass density [kg/m3] | speed of sound [m/s] | viscosity [mPa·s]
298.15 K | – | – | 0.89 ± 0.024
313.15 K | – | – | 0.653 ± 0.02
328.15 K | 985.7 ± 0.3 | 1545.4 ± 12 | 0.504 ± 0.018

Conditions | refractive index
[2], x1 = 1 | 1.33251 ± 0.0014
